Laboratory results reported in patent publication US11236087B2, “Highly active pyrazolo-piperidine substituted indole-2-carboxamides active against the hepatitis B virus (HBV)” (AiCuris GmbH & Co. KG, priority 2017, dated 2022).

Columns and labels:
HBV = test: Determination of HBV DNA from the supernatants of HepAD38 cells (anti-HBV activity); type: cell-based, hepatitis B virus; settings: Hepatitis B virus, 144 h; HBV DNA in HepAD38 supernatant, day 6, qPCR; read-out: Cell Activity (EC50)
Experimental: Determination of HBV DNA from the Supernatants of HepAD38 Cells
The anti-HBV activity was analysed in the stable transfected cell line HepAD38, which has been described to secrete high levels of HBV virion particles (Ladner et al., 1997). In brief, HepAD38 cells were cultured at 37° C. at 5% CO2 and 95% humidity in 200 μl maintenance medium, which was Dulbecco's modified Eagle's medium/Nutrient Mixture F-12 (Gibco, Karlsruhe), 10% fetal bovine serum (PAN Biotech Aidenbach) supplemented with 50 μg/ml penicillin/streptomycin (Gibco, Karlsruhe), 2 mM L-glutamine (PAN Biotech, Aidenbach), 400 μg/ml G418 (AppliChem, Darmstadt) and 0.3 μg/ml tetracycline. Cells were subcultured once a week in a 1:5 ratio, but were usually not passaged more than ten times. For the assay 60,000 cells were seeded in maintenance medium without any tetracycline into each well of a 96-well plate and treated with serial half-log dilutions of test compound. To minimize edge effects the outer 36 wells of the plate were not used but were filled with assay medium. On each assay plate six wells for the virus control (untreated HepAD38 cells) and six wells for the cell control (HepAD38 cells treated with 0.3 μg/ml tetracycline) were allocated, respectively. In addition, one plate set with reference inhibitors like BAY 41-4109, entecavir, and lamivudine instead of screening compounds were prepared in each experiment. In general, experiments were performed thrice in triplicates. At day 6 HBV DNA from 100 μl filtrated cell culture supernatant (AcroPrep Advance 96 Filter Plate, […] Supor membran, PALL GmbH, Dreieich) was automatically purified on the MagNa Pure LC instrument using the MagNA Pure 96 DNA and Viral NA Small Volume Kit (Roche Diagnostics, Mannheim) according to the instructions of the manufacturer. EC50 values were calculated from relative copy numbers of HBV DNA In brief, 5 μl of the 100 μl eluate containing HBV DNA were subjected to PCR LC480 Probes Master Kit (Roche) together with 1 μM antisense primer […], 0.5 μM sense primer […], 0.3 μM hybprobes […]-FL and LC640-[…]-PH (TIBMoBiol, Berlin) to a final volume of 12.5 μl. The PCR was performed on the Light Cycler 480 real time system (Roche Diagnostics, Mannheim) using the following protocol: Pre-incubation for 1 min at 95° C., amplification: 40 cycles×(10 sec at 95° C., 50 sec at 60° C., 1 sec at 70° C.), cooling for 10 sec at 40° C. Viral load was quantitated against known standards using HBV plasmid DNA of pCH-9/3091 (Nassal et al., 1990, Cell 63: 1357-1363) and the LightCycler 480 SW 1.5 software (Roche Diagnostics, Mannheim) and EC50 values were calculated using non-linear regression with GraphPad Prism 6 (GraphPad Software Inc., La Jolla, USA).

[1] = Cell viability assay (AlamarBlue) in HepAD38 cells; settings: human

SMILES	EC50 (HBV) [µM]	CC50 at 6 days [1] [µM]
CN(C(=O)c1[nH]nc2c1CN(C(=O)c1cc3ccccc3[nH]1)CC2)C1(C(=O)OC(C)(C)C)CC1 [Example 258, tert-butyl 1-[N-methyl 5-(1H-indole-2-carbonyl)-2H,4H,5H,6H,7H-pyrazolo[4,3-c]pyridine-3-amido]cyclopropane-1-carboxylate]	1 to 25	> 10
N[C@@H]1CCN(C(=O)c2[nH]nc3c2CN(C(=O)c2cc4ccccc4[nH]2)CC3)C1 [Example 259, (3R)-1-[5-(1H-indole-2-carbonyl)-2H,4H,5H,6H,7H-pyrazolo[4,3-c]pyridine-3-carbonyl]pyrrolidin-3-amine]	1 to 25	> 10
CN(CCC(=O)O)C(=O)CCN(C)C(=O)c1[nH]nc2c1CN(C(=O)c1cc3ccccc3[nH]1)CC2 [Example 275, 3-(3-{1-[5-(1H-indole-2-carbonyl)-2H,4H,5H,6H,7H-pyrazolo[4,3-c]pyridin-3-yl]-N-methylformamido}-N-methylpropanamido)propanoic acid]	1 to 25	> 10
CO/N=C(/c1n[nH]c2c1CN(C(=O)c1cc3ccccc3[nH]1)CC2)C1CC1 [Example 288, (E)-{cyclopropyl[5-(1H-indole-2-carbonyl)-1H,4H,5H,6H,7H-pyrazolo[4,3-c]pyridin-3-yl]methylidene}(methoxy)amine]	1 to 25	> 10
CO/N=C(\c1n[nH]c2c1CN(C(=O)c1cc3ccccc3[nH]1)CC2)C1CC1 [Example 289, (Z)-{cyclopropyl[5-(1H-indole-2-carbonyl)-1H,4H,5H,6H,7H-pyrazolo[4,3-c]pyridin-3-yl]methylidene}(methoxy)amine]	1 to 25	> 10
O=C(c1cc2ccccc2[nH]1)N1CCc2[nH]nc(C(=O)N(C3CCOCC3)C3CC3)c2C1 [Example 293, N-cyclopropyl-5-(1H-indole-2-carbonyl)-N-(oxan-4-yl)-1H,4H,5H,6H,7H-pyrazolo[4,3-c]pyridine-3-carboxamide]	< 100	> 10
CN(C(=O)c1[nH]nc2c1CN(C(=O)c1cc3cccc(F)c3[nH]1)CC2)C1CC1 [Example 319, N-cyclopropyl-5-(7-fluoro-1H-indole-2-carbonyl)-N-methyl-2H,4H,5H,6H,7H-pyrazolo[4,3-c]pyridine-3-carboxamide]	< 1	> 10
CN(C(=O)c1[nH]nc2c1CN(C(=O)c1cc3ccc(F)cc3[nH]1)CC2)C1CC1 [Example 320, N-cyclopropyl-5-(6-fluoro-1H-indole-2-carbonyl)-N-methyl-2H,4H,5H,6H,7H-pyrazolo[4,3-c]pyridine-3-carboxamide]	< 1	> 10
CN(C(=O)c1[nH]nc2c1CN(C(=O)c1cc3cc(F)ccc3[nH]1)CC2)C1CC1 [Example 321, N-cyclopropyl-5-(5-fluoro-1H-indole-2-carbonyl)-N-methyl-2H,4H,5H,6H,7H-pyrazolo[4,3-c]pyridine-3-carboxamide]	< 1	> 10
O=C(c1cc2c(Cl)cc(F)cc2[nH]1)N1CCc2[nH]nc(C34CC(C3)C4)c2C1 [Example 335, 2-(3-{bicyclo[1.1.1]pentan-1-yl}-1H,4H,5H,6H,7H-pyrazolo[4,3-c]pyridine-5-carbonyl)-4-chloro-6-fluoro-1H-indole]	< 1	> 10
O=C(c1cc2c(Cl)cccc2[nH]1)N1CCc2n[nH]c(C3CCC3)c2C1 [Example 387, 4-chloro-2-{3-cyclobutyl-2H,4H,5H,6H,7H-pyrazolo[4,3-c]pyridine-5-carbonyl}-1H-indole]	< 1	> 10
O=C(c1cc2c(F)cc(F)cc2[nH]1)N1CCc2n[nH]c(C3CCC3)c2C1 [Example 388, 2-{3-cyclobutyl-2H,4H,5H,6H,7H-pyrazolo[4,3-c]pyridine-5-carbonyl}-4,6-difluoro-1H-indole]	< 1	> 10
O=C(c1cc2ccc(F)c(F)c2[nH]1)N1CCc2n[nH]c(C3CCC3)c2C1 [Example 389, 2-{3-cyclobutyl-2H,4H,5H,6H,7H-pyrazolo[4,3-c]pyridine-5-carbonyl}-6,7-difluoro-1H-indole]	< 1	> 10
O=C(c1cc2cc(F)c(F)cc2[nH]1)N1CCc2n[nH]c(C3CCC3)c2C1 [Example 390, 2-{3-cyclobutyl-2H,4H,5H,6H,7H-pyrazolo[4,3-c]pyridine-5-carbonyl}-5,6-difluoro-1H-indole]	< 1	> 10
O=C(c1cc2c(F)c(F)ccc2[nH]1)N1CCc2n[nH]c(C3CCC3)c2C1 [Example 391, 2-{3-cyclobutyl-2H,4H,5H,6H,7H-pyrazolo[4,3-c]pyridine-5-carbonyl}-4,5-difluoro-1H-indole]	< 1	> 10
O=C(c1cc2cccc(F)c2[nH]1)N1CCc2n[nH]c(C3CCC3)c2C1 [Example 392, 2-{3-cyclobutyl-2H,4H,5H,6H,7H-pyrazolo[4,3-c]pyridine-5-carbonyl}-7-fluoro-1H-indole]	< 1	> 10
O=C(c1cc2ccc(F)cc2[nH]1)N1CCc2n[nH]c(C3CCC3)c2C1 [Example 393, 2-{3-cyclobutyl-2H,4H,5H,6H,7H-pyrazolo[4,3-c]pyridine-5-carbonyl}-6-fluoro-1H-indole]	< 1	> 10
O=C(c1cc2cc(F)ccc2[nH]1)N1CCc2n[nH]c(C3CCC3)c2C1 [Example 394, 2-{3-cyclobutyl-2H,4H,5H,6H,7H-pyrazolo[4,3-c]pyridine-5-carbonyl}-5-fluoro-1H-indole]	< 1	> 10
CCOCC1(N(C)C(=O)c2[nH]nc3c2CN(C(=O)c2cc4ccc(F)cc4[nH]2)CC3)CC1 [Example 395, N-[1-(ethoxymethyl)cyclopropyl]-5-(6-fluoro-1H-indole-2-carbonyl)-N-methyl-2H,4H,5H,6H,7H-pyrazolo[4,3-c]pyridine-3-carboxamide]	< 1	> 10
O=C(c1cc2c(F)ccc(F)c2[nH]1)N1CCc2[nH]nc(C3CCC3)c2C1 [Example 396, 2-{3-cyclobutyl-1H,4H,5H,6H,7H-pyrazolo[4,3-c]pyridine-5-carbonyl}-4,7-difluoro-1H-indole]	< 1	> 10
O=C(c1cc2c(F)cccc2[nH]1)N1CCc2n[nH]c(C3CCC3)c2C1 [Example 397, 2-{3-cyclobutyl-2H,4H,5H,6H,7H-pyrazolo[4,3-c]pyridine-5-carbonyl}-4-fluoro-1H-indole]	< 1	> 10
Cc1noc(C2(N(C)C(=O)c3[nH]nc4c3CN(C(=O)c3cc5ccccc5[nH]3)CC4)CC2)n1 [Example 398, 5-(1H-indole-2-carbonyl)-N-methyl-N-[1-(3-methyl-1,2,4-oxadiazol-5-yl)cyclopropyl]-2H,4H,5H,6H,7H-pyrazolo[4,3-c]pyridine-3-carboxamide]	< 1	> 10
CC(F)(F)c1cc(F)cc2[nH]c(C(=O)N3CCc4n[nH]c(C5CCC5)c4C3)cc12 [Example 399, 2-{3-cyclobutyl-2H,4H,5H,6H,7H-pyrazolo[4,3-c]pyridine-5-carbonyl}-4-(1,1-difluoroethyl)-6-fluoro-1H-indole]	< 1	> 10
